Earlier results in patent US20220275055A1, “DRUG TARGET OF IDIOPATHIC PULMONARY FIBROSIS” (National Institute of Biological Sciences, Beijing, priority 2019, published 2022).

Conditions: idiopathic pulmonary fibrosis (IPF); background statement

Compound	survival time
COC(=O)c1ccc2c(c1)NC(=O)/C2=C(\Nc1ccc(N(C)C(=O)CN2CCN(C)CC2)cc1)c1ccccc1 [nintedanib]	failed to show significantly increased survival time
Cc1ccc(=O)n(-c2ccccc2)c1 [pirfenidone]	failed to show significantly increased survival time
